Experiments:
Format in all cases: cell-based
[1] = test system: C6 glioma; experiment: MTT cell viability assay, C6; settings: 24 hours incubation; for inhibition at 50 µM: C6 glioma
Method: (§1) In the study, […] cell lines were purchased and used: SH-SY5Y(CRL-2266, ATCC, USA), C6 Glioma(CCL-107, ATCC, USA) and HEK293(CRL-1573, ATCC, USA). All cells were cultured and propagated in Dulbecco's Modified Eagle's Medium - high glucose (Cat. No:41966029, Gibco, USA), containing 10% (v/v) Foetal Bovine Serum (Cat. No:10500064, Gibco, USA), […] (10,000 U/mL)(Cat. No:15140122, Gibco, USA).
(§2) In order to assess the viability of the cells MTT […] assay was applied. Initially cells were seeded in the 96-well plates (VWR- 10062900) at a density of 10,000 cells/well and incubated in a cell culture incubator at 37 °C with 5% CO2 for 24 hours. Then, the cells were incubated with the tested compounds at the concentration of 100µM, 50µM, 25µM and 12.5µM for 24 hours. After completion of incubation in molecules, all media were removed and 50 µl MTT (Gold Biotechnology T-030) solution was added to each well and the plates were incubated for an additional 3 hours, followed by addition of 150 µl of MTT solubilization mixture containing 0.1% Triton X-100 (Cat. No:A4025, Biomatik, USA ) and 4mM HCI (Cat. No:07102, Sigma-Aldrich, Germany) in isopropanol(Cat. No:278475, Sigma-Aldrich, Germany). The solution was slowly mixed for 15 minutes to dissolve the MTT formazan crystals and the absorbance of each well was measured with HIDEX Sense Microplate Reader(Cat. No:425-301, HIDEX, Finland) at the wavelength of 570 nm.

[2] = test system: NIH-3T3; experiment: MTT cell viability assay, NIH-3T3 healthy cell line
Method: as §2

[3] = test system: U87MG glioblastoma; experiment: MTT cell viability assay, U87MG; settings: 24 hours incubation
Method: as §2

[4] = test system: SH-SY5Y neuroblastoma; experiment: MTT cell viability assay, SH-SY5Y; settings: 24 hours incubation; for inhibition at 50 µM: Homo sapiens, SH-SY5Y
Method: as §1, §2

[5] = test system: MCF7 breast tumor; experiment: MTT cell viability assay, MCF7
Method: as §2

[6] = test system: HEK293; experiment: MTT cell viability assay, HEK293 healthy cell line; settings: for inhibition at 50 µM: Homo sapiens, HEK293, 24 hours incubation
Method: as §1, §2

[7] = Mus musculus, NIH3T3, 24 hours incubation
[8] = Homo sapiens, MCF7, 24 hours incubation

IC50 ([3]; Homo sapiens, U-87 MG) [µM] | IC50 [5, 8] [µM] | SMILES | % inhibition (50 uM) C6 [1] [%] | IC50 ([2]; 24 hours incubation) [µM] | IC50 [3] [µM] | % inhibition (50 uM) SH-SY5Y [4] [%] | IC50 ([5]; 24 hours incubation) [µM] | % inhibition (50 uM) HEK293 ([6]; 24 hours incubation) [%] | inhibition at 50 µM [1] [%] | IC50 [2, 7] [µM] | inhibition at 50 µM [4] [%] | inhibition at 50 µM [6] [%]
– | – | N.N.[Cl][Pt][Cl] [Cisplatin, reference compound] | 79.02 | 2.05 | 10 | 97.80 | 3.55 | 52.60 | – | – | – | –
29.7 | 62.8 | CCNC(=S)N1CCN(c2nnc(-c3ccccc3)c(-c3ccccc3)n2)CC1 [Compound 1a, 4-(5,6-diphenyl-1,2,4-triazin-3-yl)-N-ethylpiperazine-1-carbothioamide] | – | – | – | – | – | – | 37.1 | 33.2 | 47.3 | 97.3
46 | – | S=C(Nc1ccccc1)N1CCN(c2nnc(-c3ccccc3)c(-c3ccccc3)n2)CC1 [Compound 1b, 4-(5,6-diphenyl-1,2,4-triazin-3-yl)-N-phenylpiperazine-1-carbothioamide] | – | – | – | – | – | – | 86.1 | 42.6 | 84.9 | 96.1
– | 73.1 | Cc1ccc(NC(=S)N2CCN(c3nnc(-c4ccccc4)c(-c4ccccc4)n3)CC2)cc1 [Compound 1c, 4-(5,6-diphenyl-1,2,4-triazin-3-yl)-N-(p-tolyl)piperazine-1-carbothioamide] | – | – | – | – | – | – | 46.8 | – | 61.6 | 92.6
55 | 61.6 | COc1ccc(NC(=S)N2CCN(c3nnc(-c4ccccc4)c(-c4ccccc4)n3)CC2)cc1 [Compound 1d, 4-(5,6-diphenyl-1,2,4-triazin-3-yl)-N-(4-methoxyphenyl)piperazine-1-carbothioamide] | – | – | – | – | – | – | 93.3 | – | 68 | 98
– | – | O=[N+]([O-])c1ccc(NC(=S)N2CCN(c3nnc(-c4ccccc4)c(-c4ccccc4)n3)CC2)cc1 [Compound 1e, 4-(5,6-diphenyl-1,2,4-triazin-3-yl)-N-(4-nitrophenyl)piperazine-1-carbothioamide] | – | – | – | – | – | – | 94.4 | – | 21.9 | 95.9
59.1 | – | S=C(Nc1ccc(Cl)cc1)N1CCN(c2nnc(-c3ccccc3)c(-c3ccccc3)n2)CC1 [Compound 1f, N-(4-chlorophenyl)-4-(5,6-diphenyl-1,2,4-triazin-3-yl)piperazine-1-carbothioamide] | – | – | – | – | – | – | 66.6 | 65.3 | 94.1 | 73.6
68.1 | 91.2 | COc1ccc(-c2nnc(N3CCN(C(=S)Nc4ccccc4)CC3)nc2-c2ccc(OC)cc2)cc1 [Compound 1g, 4-(5,6-bis(4-methoxyphenyl)-1,2,4-triazin-3-yl)-N-phenylpiperazine-1-carbothioamide] | – | – | – | – | – | – | 63.7 | 76 | 46.2 | 97.4
– | 77.2 | S=C(Nc1ccccc1)N1CCN(c2nnc(-c3ccc(Cl)cc3)c(-c3ccc(Cl)cc3)n2)CC1 [Compound 1h, 4-(5,6-bis(4-chlorophenyl)-1,2,4-triazin-3-yl)-N-phenylpiperazine-1-carbothioamide] | – | – | – | – | – | – | 77.9 | 40.2 | 87.9 | 87.4
98.6 | – | S=C(Nc1ccc(Cl)cc1)N1CCN(c2nnc(-c3ccc(Cl)cc3)c(-c3ccc(Cl)cc3)n2)CC1 [Compound 1i, 4-(5,6-bis(4-chlorophenyl)-1,2,4-triazin-3-yl)-N-(4-chlorophenyl)piperazine-1-carbothioamide] | – | – | – | – | – | – | 78.3 | 81.5 | 83.6 | 68.4

Source: patent publication EP4415826B1, “SYNTHESIS AND IN VITRO ANTITUMOR ACTIVITIES OF NOVEL THIOAMIDE SUBSTITUTED PIPERAZINYL-1,2,4-TRIAZINES” (Istanbul Medipol Universitesi, priority 2021, dated 2023)
